Patent US5547939A, “Broad spectrum antimicrobial compounds and methods of use” (priority 1994, dated 1996)

Assays:
Escherichia coli ML35 [1] = test: Agar diffusion assay, E. coli; type: cell-based; conditions: E. coli ML35, FIG. 4
Procedure: (§1) The broad spectrum antimicrobial activity of indolicidin and indolicidin analogs also was determined using a gram negative bacterial strain, Escherichia coli ML35, a gram positive bacterial strain, Staphylococcus aureus 502A, and a fungus, Cryptococcus neoformans, in an agar diffusion assay, essentially as described by Hultmark et al., EMBO J. 2:571-576 (1983) as modified by Lehrer et al., J. Immunol. Meth. 137:167-173. Briefly, nutrient-containing agar (or agarose) plates were seeded with a selected target microorganism and 5-10 μl of peptide was placed into a well formed in the solid medium or onto a disc placed on the surface of the medium. Following an appropriate incubation interval, microbial growth inhibition was visualized and quantitated by measuring the clear zone around each well or disc (see, also, Selsted, 1993).

[2] = tested on: Staphylococcus aureus 502A; test: Agar diffusion assay, S. aureus; type: cell-based; conditions: S. aureus 502a, FIG. 6
Procedure: as §1

Escherichia coli ML35 [3] = test: Dose response bactericidal assay (CFU reduction), E. coli; type: cell-based; conditions: 2 hr incubation
Procedure: (§2) The time course and dose-dependence of the antimicrobial activity of an indolicidin analog can be determined by incubating a microorganism with the analog and determining the viability after various times of incubation or after treatment with various concentrations of the analog. Assays were performed in 10 mM sodium phosphate buffer, pH 7.4, at 37° C., as described by Selsted et al. (Infect. Immun. 45:150-154 (1985), which is incorporated herein by reference).
(§3) The dose response of a gram negative bacterial strain, Escherichia coli ML35, and a gram positive bacterial strain, Staphylococcus aureus 502A, to indolicidin was determined by incubating 2×10^6 colony forming units (CFU) of log phase bacteria with 0-25 ug/ml of indolicidin for two hours. Following incubation, the cultures were serially diluted and plated on nutrient agar. […] E. coli was more susceptible than S. aureus, as>95% of the input cells were killed after 2 hr incubation with 2.5 ug/ml indolicidin. The indolicidin diluent, 0.01% acetic acid, had no effect on either bacterial strain.

E. coli = test: Microbicidal kinetics of indolicidin; type: cell-based, Escherichia coli; conditions: 25 μg/ml
Procedure: as §2
The kinetics of indolicidin antimicrobial activity was evaluated by incubating 2×10^6 E. coli with 25 ug/ml of indolicidin for 1-40 min. Following incubation for the appropriate time, an aliquot of the culture was removed and diluted and plated as described above.

Cryptococcus neoformans = test: Agar diffusion assay, C. neoformans; type: cell-based; conditions: FIG. 5
Procedure: as §1

erythrocyte suspension = test: Hemolytic assay (erythrocyte lysis assay); type: cell-based; conditions: for % Hemolysis: 30 μg peptide, 18 hr at 37° C., 100% lysis = 1% NP40
Procedure: The hemolytic activity of each peptide was examined using an erythrocyte lysis assay. An 8% (vol:vol) erythrocyte suspension in normal saline or in 80% mouse serum was incubated with 30 μg peptide. After 18 hr incubation at 37° C. intact erythrocytes were removed by centrifugation and the A550 of the supernatant was determined as a measure of hemolysis. As a control (100% lysis), supernatant was collected from an erythrocyte suspension treated with 1% NP40 detergent.

[4] = five attempts to raise antibodies
[5] = tested on: Staphylococcus aureus 502A; test: Dose response bactericidal assay (CFU reduction), S. aureus; type: cell-based; conditions: 10 ug/ml, 2 hr incubation, 2×10^6 CFU, 10 mM sodium phosphate pH 7.4, 37° C.
Procedure: as §2, §3

[6] = saline, 8% erythrocyte suspension in normal saline
[7] = serum, 8% erythrocyte suspension in 80% mouse serum

Row | Compound | antimicrobial activity (clear zone) compared with indolicidin (Escherichia coli ML35 [1]) | antimicrobial activity (clear zone) compared with indolicidin [2] | antimicrobial activity (clear zone) compared with indolicidin (Cryptococcus neoformans) | % Hemolysis (erythrocyte suspension; [6]) [%] | % Hemolysis (erythrocyte suspension; [7]) [%] | also measured
1 | CC[C@H](C)[C@H](N)C(=O)N[C@@H](CC(C)C)C(=O)N1CCC[C@H]1C(=O)N[C@@H](Cc1c[nH]c2ccccc12)C(=O)N[C@@H](CCCCN)C(=O)N[C@@H](Cc1c[nH]c2ccccc12)C(=O)N1CCC[C@H]1C(=O)N[C@@H](Cc1c[nH]c2ccccc12)C(=O)N[C@@H](Cc1c[nH]c2ccccc12)C(=O)N1CCC[C@H]1C(=O)N[C@@H](Cc1c[nH]c2ccccc12)C(=O)N[C@@H](CCCNC(=N)N)C(=O)N[C@@H](CCCNC(=N)N)C(N)=O [Indol-R12 R13 --NH2, H2 N--I--L--P--W--K--W--P--W--W--P--W--R--R--CONH2] | greatest antimicrobial activity | greatest antimicrobial activity | greatest antimicrobial activity | 78.5 | 2.3 | input cells killed (Escherichia coli ML35 [3]; 2.5 ug/ml): > 95%; reduction of viability (CFU) (Escherichia coli ML35 [3]; 10 ug/ml, 2×10^6 CFU, 10 mM sodium phosphate pH 7.4, 37° C.): reduced by at least four orders of magnitude; state of the culture (E. coli; after 20 min): essentially was sterilized; reduction of number of E. coli CFU (E. coli; within 5 min): three orders of magnitude; % Hemolysis (erythrocyte suspension; saline, 8% erythrocyte suspension in normal saline, listed as indolicidin): greatest hemolytic activity; immunogenicity [4]: extremely low immunogenicity; reduction of viability (CFU) [5]: reduced by at least four orders of magnitude
2 | CC[C@H](C)[C@H](N)C(=O)N[C@@H](CC(C)C)C(=O)N1CCC[C@H]1C(=O)N[C@@H](Cc1c[nH]c2ccccc12)C(=O)N[C@@H](CCCCN)C(=O)N[C@@H](Cc1c[nH]c2ccccc12)C(=O)N1CCC[C@H]1C(=O)N[C@@H](Cc1c[nH]c2ccccc12)C(=O)N[C@@H](Cc1c[nH]c2ccccc12)C(=O)N1CCC[C@H]1C(=O)N[C@@H](Cc1c[nH]c2ccccc12)C(=O)N[C@@H](CCCNC(=N)N)C(=O)N[C@@H](CCCNC(=N)N)C(=O)O [Indol-R12 R13 --OH, H2 N--I--L--P--W--K--W--P--W--W--P--W--R--R--OH] |  |  |  | 47.9 | 3.0 | 
3 | H2 N--I--L--P--W--K--W--P--W--W--P--W--R--OH (H-ILPWKWPWWPWR-OH) [Indol-R12 --OH, indolicidin analog] | markedly less potent than indolicidin | markedly less potent than indolicidin | markedly less potent than indolicidin |  |  | 
4 | H2 N--I--L--P--W--K--W--P--W--W--P--W--K--CONH2 (H-ILPWKWPWWPWK-NH2) [Indol-K12 --NH2, indolicidin analog having a deletion of R-13 and a substitution of K-12 for R-12] |  |  |  |  |  | antimicrobial selectivity (antimicrobial activity relative to hemolytic activity) compared with indolicidin (erythrocyte suspension; FIGS. 4-6 and Table 2): greater antimicrobial selectivity than indolicidin
5 | H2 N--I--L--P--W--K--W--P--W--W--P--W--R--N--CONH2 [Indol-R12 W13 --NH2] | markedly less potent than indolicidin | markedly less potent than indolicidin | markedly less potent than indolicidin |  |  | 
